Experiments:
[1] = test system: strains of Pseudomonas organisms, e.g. strains of Pseudomonas aeruginosa; assay: antibacterial activity against Pseudomonas strains; format: cell-based
[2] = distribution in the bodies of small rodents; format: in vivo
[3] = administration of 500 mg/kg to mice (lethality); format: in vivo; conditions: for deaths: 500 mg/kg; for LD50: mouse, in vivo
[4] = effect of increased inocula; format: cell-based
[5] = serum half-life in primates; format: in vivo; conditions: extrapolated to man
[6] = effect of human serum on antibacterial properties; format: cell-based
[7] = test system: wide range of commonly encountered pathogenic organisms; assay: broad spectrum antibiotic activity; format: cell-based
gram-negative bacteria = assay: experimental infections in mice with gram-negative bacteria; format: in vivo
[8] = test system: strains of Staphylococcus aureus; assay: antibacterial activity against Staphylococcus aureus; format: cell-based
[9] = test system: strains of Pseudomonas aeruginosa; assay: protection of mice against strains of Pseudomonas aeruginosa; format: in vivo; conditions: for protection compared with treatment with an aminoglycoside such as amikacin: vs amikacin

Structure (SMILES)	activity against strains of Pseudomonas [1]	distribution in the body [2]	therapeutic levels after subcutaneous injection [2]	deaths [3]	LD50 [3]	effect of increased inocula against the compounds [4]	probable half-life in man from serum half-life in primates [5]	antibacterial properties in human serum [6]	general antibiotic properties [7]	treatment of experimental infections with gram-negative bacteria (gram-negative bacteria)	activity against strains of Staphylococcus aureus [8]	protection against strains of Pseudomonas aeruginosa [9]	protection compared with treatment with an aminoglycoside such as amikacin [9]
NC(=O)C[n+]1ccc(SCC2=C(C(=O)[O-])N3C(=O)[C@@H](NC(=O)/C(=N\OC4(C(=O)O)CCC4)c4csc(N)n4)[C@H]3SC2)cc1 [(6R,7R)-7-[(Z)-2-(2-Aminothiazol-4-yl)-2-(1-carboxycyclobut-1-oxyimino)acetamido]-3-[(1-carbamoylmethylpyridinium-4-yl)thiomethyl]ceph-3-em-4-carboxylate]	excellent activity	well distributed	useful therapeutic levels	did not cause any deaths	> 500 mg/kg	low	comparatively long half-life in man	generally are not impaired by human serum	to an outstanding extent	successfully treated	useful activity	good protection	comparable with the treatment with an aminoglycoside such as amikacin
CC(C)(O/N=C(\C(=O)N[C@@H]1C(=O)N2C(C(=O)[O-])=C(CSc3cc[n+](CC(N)=O)cc3)CS[C@H]12)c1csc(N)n1)C(=O)O [(6R,7R)-7-[(Z)-2-(2-Aminothiazol-4-yl)-2-(2-carboxyprop-2-oxyimino)acetamido] -3-[(1-carbamoylmethylpyridinium-4-yl)thiomethyl]ceph-3-em-4-carboxylate]	excellent activity	well distributed	useful therapeutic levels	did not cause any deaths	> 500 mg/kg	low	comparatively long half-life in man	generally are not impaired by human serum	to an outstanding extent	successfully treated	useful activity	good protection	comparable with the treatment with an aminoglycoside such as amikacin

Reference: patent US4315005A, “Cephalosporin antibiotics” (Glaxo Group Limited, priority 1979, dated 1982)
